Data as given in US11236053B2, “NADPH oxidase inhibitors and uses thereof” (Emory University, priority 2017, dated 2022).

Experiments:
[1] = Hydrogen peroxide scavenging assay (Amplex Red); format: biochemical; settings: in vitro, concentrations up to 100 μM, 5 μM exogenous hydrogen peroxide
Protocol: (§1) ROS scavenging by sulfonylurea compound 23, 24, or 25 was assessed in vitro. Superoxide was generated with xanthine/xanthine oxidase and measured using the cytochrome C assay. In addition, 5 μM hydrogen peroxide was added exogenously and measured using the Amplex Red™ assay. ROS were measured in the presence of indicated concentrations of each compound or DMSO solvent. Bars represent means±SEM of 4 (superoxide) or 3 (hydrogen peroxide) independent experiments. Differences between DMSO and sulfonylurea compounds are not significant.
(§2) To assess ROS scavenging, the consumption of superoxide, generated by xanthine/xanthine oxidase, or of exogenous hydrogen peroxide, was measured by increasing concentrations of the compounds of interest.
Hydrogen peroxide was measured in vitro, using an Amplex Red™ assay kit (Invitrogen), according to the manufacturer's instructions. This assay measures the oxidation of Amplex Red™ (10-acetyl-3,7-dihydroxyphenoxazine) to fluorescent resorufin in the presence of horseradish peroxidase. Briefly, H2O2 ([…]) was added to various concentrations (1-100 μM) of the compounds under study in reaction buffer. After an incubation of 5 min, Amplex Red™ was added to measure remaining H2O2. Reactions were incubated for 30 min at room temperature, protected from light. Resorufin fluorescence was measured in a microplate reader (Biotek) using excitation at 530 nm and emission at 590 nm.

[2] = system: human aortic smooth muscle cells; assay: Mammalian cell live/dead viability assay; format: cell-based; settings: TGF-β stimulated, n=6
Protocol: To rule out a possible toxic effect of these compounds in cultured cells, cell viability was measured using a commercial mammalian cell live/dead assay. Stimulation with TGF-β alone had no effect on cell viability (99±0.61%, P=NS, n=4).

Nox4 mRNA = Nox4 mRNA qPCR assay in TGF-β-stimulated cells; format: cell-based, human; settings: preincubation, same range of concentrations as FIG. 11, TGF-β stimulated
Nox4-dependent signaling = assay: TGF-β-induced α-SMA upregulation in human aortic smooth muscle cells (Western blot); format: cell-based; settings: HASMCs pretreated 30 min, TGF-β 24 h, Western blot normalized to β-tubulin
Protocol: Human aortic smooth muscle cells in culture were incubated with indicated concentrations of compound 23, 24, or 25 and stimulated with 2 ng/ml TGF-β for 24 h to induce a Nox4-dependent upregulation of smooth muscle alpha-actin (α-SMA). Protein expression was measured by Western blotting and normalized to β-tubulin. In the absence of inhibitor, α-SMA induction by TGF-β was maximal (100%).
Cells were pretreated with a candidate inhibitor 30 min before exposure to TGF-β and harvested after 24 h. Actin expression was measured by western blotting with a specific antibody.

[3] = Superoxide scavenging assay (xanthine/xanthine oxidase, cytochrome C); format: biochemical; settings: in vitro, concentrations up to 100 μM, superoxide from xanthine/xanthine oxidase
Protocol: as §1, §2
An assay was developed based on the measurement of superoxide-dependent changes in cytochrome C absorbance at 550 nm. Briefly, superoxide was generated in vitro in phosphate buffered saline solution, using hypoxanthine (100 μM)/xanthine oxidase (6×10^3 U/mL) in the presence of catalase (200 U/mL) to eliminate H2O2. Compounds under study were added at various concentrations (1-100 μM) and remaining superoxide was measured with cytochrome C (46 μM). Superoxide dismutase (575 U/mL) was used as a positive control in separate samples measured at the same time. Following a 1 min stabilization period, absorbance was measured at 550 nm in a microplate reader (Biotek), using a kinetic program (1 read/min) for 15 min. The linear slope representing the rate of superoxide production was used to calculate the percentage of superoxide scavenging.

hippocampal brain slices = hippocampal brain slices treated with Nox 4 inhibitors; cited from earlier work

COc1ccc(S(=O)(=O)N2CCCN(c3ccc(C(F)(F)F)cc3)C2=O)cc1 [Compound 23, 1-((4-Methoxyphenyl)sulfonyl)-3-(4-(trifluoromethyl)phenyl)-tetrahydropyrimidin-2(1H)-one]
effect on hydrogen peroxide (ROS scavenging) [1]: no effect
cell viability ([2]; 100 μM preincubation): 92±3.09%
effect on Nox4 expression (Nox4 mRNA) (Nox4 mRNA): did not affect
inhibition of Nox4-dependent signaling (α-SMA expression) (Nox4-dependent signaling): profoundly inhibiting
effect on superoxide (ROS scavenging) [3]: no effect

O=C1N(c2ccc(C(F)(F)F)cc2)CCCN1S(=O)(=O)c1ccc(F)cc1 [Compound 24, 1-((4-Fluorophenyl)sulfonyl)-3-(4-(trifluoromethyl)phenyl)-tetrahydropyrimidin-2(1H)-one]
effect on hydrogen peroxide (ROS scavenging) [1]: no effect
cell viability ([2]; 100 μM preincubation): 100±0.97%
effect on Nox4 expression (Nox4 mRNA) (Nox4 mRNA): did not affect
inhibition of Nox4-dependent signaling (α-SMA expression) (Nox4-dependent signaling): profoundly inhibiting
effect on superoxide (ROS scavenging) [3]: no effect

COc1ccc(S(=O)(=O)N2CCN(c3ccc(C(F)(F)F)cc3)C2=O)cc1 [Compound 25, 1-((4-Methoxyphenyl)sulfonyl)-3-(4-(trifluoromethyl)phenyl)-imidazolidin-2-one]
effect on hydrogen peroxide (ROS scavenging) [1]: no effect
cell viability ([2]; 10 μM preincubation): 97±2.50%
effect on Nox4 expression (Nox4 mRNA) (Nox4 mRNA): did not affect
inhibition of Nox4-dependent signaling (α-SMA expression) (Nox4-dependent signaling): profoundly inhibiting
effect on superoxide (ROS scavenging) [3]: no effect

Cc1c2c(=O)n(-c3ccccc3Cl)[nH]c2cc(=O)n1Cc1ccccn1 [GKT136901]
cell death (hippocampal brain slices): significantly reduced
